# Measured values from patent US20110008394A1, “ACTIVE SUBSTANCES THAT INCREASE THE ACTIVATION THRESHOLD OF IMMUNE CELLS” (BASF Beauty Care Solutions France S.A.S., priority 2008, published 2011).
# Tests used:
# immature LCs/DDCs = test: Cell viability (cytotoxicity) test, 7-AAD dye, flow cytometry; assay type: cell-based; details: 24 hour treatment
# Protocol: The active principles have a cytotoxic effect when the cell viability is less than 75% after treatment with the said active agents.
# The LCs/DDCs, as described in Example 1 and step 3, are inoculated into P96-well plates, at a rate of 200 000 cells/well, and in the culture medium described in Example 3. The treatment of the cells with the active principles is described in Example 3.
# After treatment with the said active principles, the cells are incubated with 5 μl of dye 7-AAD (7-aminoactinomycin D) per well. After incubation for 5 minutes, the cells are analysed by flow cytometry.
# The cell viability is expressed as a percentage of viable cells or negative 7-AAD, the dye not penetrating the membranes that are impermeable. This analysis technique also makes it possible to visualize the cells positively marked with 7-AAD, i.e. the cells that have undergone a cytotoxic effect via the active agent.
# The negative controls are either the culture medium alone, or the culture medium containing the solvent used during the process for extracting the extracts tested at the concentration equivalent to that of the active agents tested. The reference positive control used in order to induce a mortality of the LCs/DDCs is camptothecin at a concentration of 4 μM final.
# [1] = test system: CD86 on immature LCs/DDCs; test: Protein expression of CD86 on treated immature LCs/DDCs, flow cytometry; assay type: cell-based, human; details: for RESIDUAL EXPRESSION OF CD86: protein, untreated control = 100%; for LEVEL OF IMMUNOREPRESSION: inversely proportional to residual CD86 protein expression, closer to 1 = stronger
# Protocol: The study of the immunorepressive properties of the cosmetic active principles by flow cytometry proceeds in the following manner:
# (§1) 1/ The immature LCs/DDCs are generated as described in Example 1 and step 3.
# 2/ The cells are inoculated in P24-well plates, at a rate of 400 000 cells per cm^2, and in the culture medium described in Example 3.
# 4/ The cells are then incubated for 30 minutes with an anti-CD86 monoclonal antibody coupled to a fluorochrome, such as phycoerythrin (advantageously 10 μl of anti-CD86 antibody/well). The negative marking control corresponds to the IgG1 control isotype. After this marking step, the cells are rinsed with the said marking buffer, and then analysed by flow cytometry.
# The level of immunorepression, which is inversely proportional to the residual expression of CD86, was also calculated.
# [2] = test system: messenger RNAs coding for CD86 in immature LCs/DDCs; test: Expression of messenger RNAs coding for CD86 in treated immature LCs/DDCs, quantitative RT-PCR; assay type: cell-based, human; details: 10^-7M, 24 hour treatment; for RESIDUAL EXPRESSION OF CD86: messenger RNA relative to actin, untreated control = 100%; for LEVEL OF IMMUNOREPRESSION: from CD86 messenger RNA, closer to 1 = stronger
# From the text: Quantitative RT-PCR makes it possible to quantify the expression of the messenger RNAs coding for the protein CD86 in the LCs/DDCs treated or not treated with the said active agents.
# The study of the immunorepressive properties of the cosmetic active principles by quantitative RT-PCR proceeds in the following manner:
# as §1
# (§2) 2/ The cells are inoculated in P24-well plates, at a rate of 400 000 cells per cm^2, and in the culture medium described in Example 3. The treatment of the cells with the active principles is described in Example 3.
# 3/ After treatment with the active principles, the cells are recovered and stored, for example by dry-freezing at −80° C. after rinsing with pH 7.4 phosphate buffer.
# 4/ The total RNA of the cells is extracted, for example using a 96-well extraction kit on silica columns, and assayed on e96-well spectrophotometer at 260 nm (purity indicator: assay of the proteins at 280 nm). The RNAs are diluted, for example, to 5 ng/μl.
# 5/ The […] RT-PCR in step 1 is performed, for example, on 50 ng of initial RNA on a 96-well plate, on the genes for actin and for the molecule CD86. The specific primers for each gene are specified in Table 7 below and are used, for example, at 0.5 μM.
# The amplification parameters were advantageously the following: the real-time RT-PCR technique is performed with the Quanti Tect SYBR Green RT-PCR kit (Qiagen, France) on the wells containing the messenger RNA, in an Opticon thermocycler, which performs the amplification cycles. The reverse transcription (RT) is performed for 30 minutes at 50° C., followed by 15 minutes at 95° C. to inhibit the reverse transcriptase, to activate the polymerase and to denature the complementary DNA (cDNA) obtained. 50 cycles of chain polymerization (PCR) are performed (15 seconds at 95° C., 30 seconds at 60° C., 30 seconds at 72° C.). At the end of each cycle, the fluorescence, which is proportional to the number of amplified fragments, is read. The level of expression is defined by the ratio of expression of each gene relative to actin.
# The results are expressed in the following manner: the untreated control is referenced at 100% expression of the messenger RNAs coding for the molecule CD86, and the tests are expressed as the level of expression of the messenger RNAs coding for CD86 as a percentage of variation relative to those obtained for the negative control.
# [3] = test system: CD86 on LCs/DDCs stimulated with LPS and TNFα; test: Response to a danger signal: LCs/DDCs simultaneously treated with active principles and stimulated with LPS + TNFα, CD86 by flow cytometry; assay type: cell-based, human; details: for RESIDUAL EXPRESSION OF CD86 AFTER TREATMENT: active principle alone, no stimulation; for RESIDUAL EXPRESSION OF CD86 AFTER TREATMENT / RESIDUAL EXPRESSION OF CD86 AFTER TREATMENT + STIMULATION: untreated unstimulated control = 100%; for RESPONSE CAPACITY: capacity for response to a danger signal, proportional to residual CD86 after treatment + stimulation (stimulation alone 143%); for RESIDUAL EXPRESSION OF CD86 AFTER TREATMENT + STIMULATION: simultaneous active principle and LPS 50 μg/mL + TNFα 10 μg/mL
# Protocol: Evaluation of the immunorepressive potential of the active principles also requires a study of the capacity of the LCs/DDCs to respond to a danger signal, for example a bacterial infection, when they are treated with the said active principles. Specifically, we checked that the LCs/DDCs that are simultaneously treated with the active principles and activated by a danger signal are still competent in their function of recognition of danger signals. To do this, we checked that the LDs/DDCs simultaneously treated with the active principles and stimulated with LPS and TNFα are capable of overexpressing the co-stimulation molecule CD86 after this stimulation.
# (§3) The flow cytometry study proceeds in the following manner:
# as §1
# 2/ The cells are inoculated in P24-well plates, at a rate of 400 000 cells per cm^2, and in the culture medium described in Example 3. A mixture of LPS (at 50 μg/mL advantageously) and of TNFα (at 10 μg/mL advantageously) is added to the said culture medium. Simultaneously, the cells are treated with the active principles as described in Example 3.
# 3/ The cells that have been simultaneously treated with the active principles and stimulated with LPS and TNFα are analysed by flow cytometry, as described in Example 6, to quantify the residual expression of the molecule CD86 after “treatment+stimulation”.
# The results are expressed in the following manner: the control not treated with the active agent and not stimulated with LPS+TNFα is referenced at 100% expression of the molecule CD86, and the tests are expressed as the residual expression of the molecule CD86 after “treatment”, after “treatment+stimulation” and “stimulation”. We also calculated the level of capacity for response to a danger signal, which is proportional to the residual expression of CD86 after treatment+stimulation.
# [4] = test system: CD86 on LCs/DDCs stimulated with LPS and TNFα; test: Response to a danger signal: LCs/DDCs pretreated with active principles, then stimulated with LPS + TNFα without them, CD86 by flow cytometry; assay type: cell-based, human; details: for RESPONSE CAPACITY: capacity for response to a danger signal, proportional to residual CD86 after pretreatment + stimulation (stimulation alone 143%); for RESIDUAL EXPRESSION OF CD86 AFTER PRETREATMENT + STIMULATION: pretreated, then recultured 48 hours without active principle with LPS 50 μg/mL + TNFα 10 μg/mL, untreated unstimulated control = 100%
# From the text: As in Example 8, we checked that the LCs/DDCs are capable of responding to a danger signal, for example a bacterial infection, when they have been treated beforehand with the active principles and when they are no longer being treated. To do this, we checked that the LCs/DDCs treated with the said active principles, and then stimulated with LPS and TNFα (in the absence of the active principles), are capable of overexpressing the co-stimulation molecule CD86 after this stimulation.
# as §3, §1, §2
# 3/ The cells treated with the active principles are then recultured, without the active principles and in the culture medium described in Example 3, for a further 48 hours. A mixture of LPS (at 50 μg/mL advantageously) and of TNFα (at 10 μg/mL advantageously) is added to the said culture medium. The cells are then analysed by flow cytometry, as described in Example 6, to quantify the residual expression of the molecule CD86 after “pretreatment+stimulation”.
# The results are expressed in the following manner: the control not treated with the active agent and not stimulated with LPS and TNFα is referenced at 100% expression of the molecule CD86, and the tests are expressed as the residual expression of the molecule CD86 after “stimulation” and after “pretreatment+stimulation”. We also calculated the level of capacity for response to a danger signal, which is proportional to the residual expression of CD86 after pretreatment+stimulation.
# [5] = 10^-7M, % viable (7-AAD negative) cells
# [6] = 5 × 1^0^-^7M, dose/effect study
Compound,CYTOTOXIC EFFECT (immature LCs/DDCs; 10^-7M),CELL VIABILITY (immature LCs/DDCs; [5]) [%],"RESIDUAL EXPRESSION OF CD86 [1, 6] [%]","RESIDUAL EXPRESSION OF CD86 ([1]; 5 × 10^-8M, dose/effect study) [%]","RESIDUAL EXPRESSION OF CD86 ([1]; 10^-6M, dose/effect study) [%]","RESIDUAL EXPRESSION OF CD86 ([1]; 10^-7M, 24 hour treatment) [%]","LEVEL OF IMMUNOREPRESSION ([1]; 10^-7M, 24 hour treatment)",RESIDUAL EXPRESSION OF CD86 [2] [%],LEVEL OF IMMUNOREPRESSION [2],RESIDUAL EXPRESSION OF CD86 AFTER TREATMENT [3] [%],RESPONSE CAPACITY [3],RESIDUAL EXPRESSION OF CD86 AFTER TREATMENT + STIMULATION [3] [%],RESPONSE CAPACITY [4],RESIDUAL EXPRESSION OF CD86 AFTER PRETREATMENT + STIMULATION [4] [%],"CELL VIABILITY (immature LCs/DDCs; 3 μm, positive control) [%]","CYTOTOXIC EFFECT (immature LCs/DDCs; 3 μm, positive control)","RESIDUAL EXPRESSION OF CD86 ([1]; 10^-8M, 24 hour treatment) [%]","LEVEL OF IMMUNOREPRESSION ([1]; 10^-8M, 24 hour treatment)"
COc1cc2c(cc1OC)-c1cc3cc(OC)c(OC)cc3c(=O)n1CC2 [8-Oxopseudopalmatine],NO (The active principles have a cytotoxic effect when the cell viability is less than 75% after treatment with the said active agents),94,92,100,85,81,0.14,59,0.41,81,0.85,121,0.89,127,,,,
Foliosidine acetonide,NO (The active principles have a cytotoxic effect when the cell viability is less than 75% after treatment with the said active agents),>95,80,85,83,85,0.17,91,0.09,85,0.81,116,0.84,120,,,,
O=C1C=C2C=C[C@@H]3C[C@@]2(O1)[C@H]1CCCCN31 [Securinine],NO (The active principles have a cytotoxic effect when the cell viability is less than 75% after treatment with the said active agents),94,100,90,100,83,0.10,74,0.26,83,0.98,140,0.88,126,,,,
"CC[C@@]1(O)C(=O)OCc2c1cc1n(c2=O)Cc2cc3ccccc3nc2-1 [Camptothecin, reference compound]",,,,,,,,,,,,,,,35,YES (The active principles have a cytotoxic effect when the cell viability is less than 75% after treatment with the said active agents),,
"C[C@@H]1C[C@H]2[C@@H]3CCC4=CC(=O)C=C[C@]4(C)[C@@]3(F)[C@@H](O)C[C@]2(C)[C@@]1(O)C(=O)CO [Dexamethasone, reference compound]",,,,,,,,,,50,0.52,75,0.91,130,,,50,0.5
